# In US20030003440A1, “Novel CCR5 epitope and antibodies against it” (priority 2001, published 2003):
# Assays:
# [1] = system: anti-CCR5 Abs; test: Epitope mapping of anti-CCR5 Abs on peptide/beads, assayed in the Mip1β binding inhibition assay; design: species or system human; settings: for Binding of anti-CCR5 Abs to peptide: Abs from ESN sera bound to peptide/beads, eluted, tested in Mip1β binding inhibition assay, FIG. 1
# Procedure: Coupling of CCR5 peptides to tosyl-activated Dynabeads M280 (Dynal, Oslo, Norway) was obtained following standard procedures. Briefly, 3×10^7 beads were incubated with 9 μg of CCR5 peptides in 50 mM borate buffer pH 9,5 (16 h at 37° C.). After 4 washes in PBS, peptide/beads were ready for use.
# Binding of anti-CCR5 specific Igs to peptide/beads was obtained by incubating 9 μg Ig's to 9 μg peptide/beads for 1 h at 4° C. Ig's were eluted in 0.5 M acetic acid, dialyzed against RPMI medium, then tested in Mip1β binding assays and/or in HIV neutralization assays. To establish if the region recognized by anti-CCR5 antibodies corresponds to a conformational epitope, the specific peptide/beads were incubated with 10 mM of βME, and subsequently with 300 mM of N-Ethyl Maleimide (final concentration: 30 mM) for 60 min prior to antibody binding.
# The assay was performed as described (Trkola, A. et al., 1996, Nature 384:184). Briefly, 10^6 purified CD4^+ cells in 200 μl of RPMI (Gibco-Life Technologies, Milan, Italy)(containing 0.05 M NaN3, 1% BSA and 25 mM HEPES) were incubated with appropriate dilutions of affinity-purified anti-CCR5 Abs (Example 1); after 45 min of incubation ^125I-Mip1β (Dupont-NEN, Mechelem, Belgium) was added (final concentration 0.1 nM, 0.2 μCi), and the cells were further incubated for 2 h on ice. Unbound radioactivity was separated by centrifugation on a two-step gradient (Grassi, F. et al., 1991, J. Exp. Med. 174:53) in 0.3 ml tubes (Nunc, Roskilde, Denmark) as follows: the lower layer consisted of fetal calf serum (FCS) containing 10% sucrose; the upper layer consisted of 80% silicone (Sigma-Aldrich) and 20% mineral oil (Sigma-Aldrich). The bound radioactivity in the cell pellets was measured in a gamma counter. Serum samples were diluted 1:10 (5 replicas for each sample). A specificity control consisting of a 100-fold excess of unlabeled Mip1β was included in all experiments. The binding of the ^125I-Mip1β to activated CD4^+ cells ranged between 1000 and 6000 CPM. The cut-off value was set at 12% (3 SD above the mean value of the 45 USN serum samples).
# [2] = target: T1, peptide 3 from CCR5 (Homo sapiens, UniProt P51681); test: Immunization of mice with KLH-conjugated peptide; binding of mice sera to peptide 3 by ELISA; type: in vivo; settings: BALB/c mice, i.p. every 15 days, three immunizations, KLH conjugate 50 μg/dose; FIG. 3
# T1 construct: made in house; host or cells: chemical solid-phase synthesis
# Procedure: BALB/c mice were immunized i.p. every 15 days with peptide 3 or with an unrelated control peptide (VQGEESNDK); both peptides had previously been conjugated to KLH (50 μg/dose). Serum was monitored for the presence of antibodies against the immunogens. After three immunizations the mice were sacrificed and sera were tested in direct binding on pep 3.
# Binding of mice sera to peptide 3 was obtained by ELISA. Microwells plates were coated with Beads/pep 3 (10^7beads). The plates were satured for 1 h with PBS and 3% BSA. Different dilutions of mice antisera ( 1/10, 1/50, 1/250 and 1/1000) were added and incubated for 2 h at r.t. […] The enzimatic reaction was developed and read at 492 nm.
Binding of anti-CCR5 Abs to peptide [1],Binding on pep 3 of sera of immunized mice (ELISA) [2],Binding of anti-CCR5 Abs to peptide after reduction and alkylation ([1]; addition of 2-ME and N-ethyl maleimide),Substance
no binding,–,–,"FQEFFGLNNCSSSNR [compound 5, peptide of the extramembrane region of CCR5]"
Specific Ab binding,specific binding,abolished,"cYAAAQWDFGNTMCQ (N-terminal Cys added; UniProt P51681 89-102, looked up, fragment) [peptide 3, second external domain of CCR5 (first cysteine loop, aa 89-102) with Cys added at the N-terminus]"
no binding,–,–,CSSHFPYSQYQFWKNFQTLKc [compound 4]
–,no binding,–,"VQGEESNDK [control peptide, unrelated control peptide conjugated to KLH, reference compound]"
no binding,–,–,cMDYQVSSPIYDINYYTSEPC [compound 1]
no binding,–,–,"YYTSEPCQKINVKQIAARLLP [compound 2, peptide of the extramembrane region of CCR5]"
